“Also recorded” adds a separate entry of the source.
Legend:
[1] = test system: Aβ40 and Aβ42 in SH-SY5Y neuroblastoma cells; settings: cited from earlier work
[2] = cited from earlier work
[3] = test system: human astrocytes; assay: Withdrawal of each individual compound from the 9 small molecule pool; type: cell-based; settings: 14 days post initial treatment; for effect of removal from the 9 small molecule pool on number of converted neurons / reprogramming efficiency: SAG and Purmo removed together
Source text: This Example describes analysis of functional roles of each individual compound during chemical reprogramming. To dissect out the contribution of each single molecule toward reprogramming, we performed a series of experiments by withdrawing each individual compound from our cocktail pool (FIG. 6). […] FIG. 6K illustrates the summarized data of drug withdrawing experiments. While it is not a surprise that Tzv had no effect since it mainly acts as a cell survival factor, it was unexpected to find that removing TTNPB had no effect. […] On the other hand, the inhibition of Notch signaling, GSK-3β, and BMP/TGFβ signaling pathways appeared to be important for reprogramming astrocytes into neurons. […] Reprogramming human astrocytes into neurons. The astrocytes were cultured on poly-D-lysine (Sigma) coated coverslips (12 mm) at a density of 50,000 cells per coverslip in 24-well plates (BD Biosciences). The cells were cultured in human astrocyte medium until 90% confluence. At day 0 before reprogramming, half of the culture medium was replaced by N2 medium consisting of DMEM/F12 (Gibco), penicillin/streptomycin (Gibco) and N2 supplements (Gibco). The following day (Day 1), the culture medium was completely replaced by N2 medium supplemented with small molecules, or with 1% DMSO in control group. […] To promote synaptic maturation of converted neurons, brain-derived neurotrophic factor (BDNF, 20 ng/Ml, Invitrogen), Insulin-like growth factor 1 (IGF-1, 10 ng/ml, Invitrogen) and neurotrophin 3 (NT-3, 10 ng/ml, Invitrogen) were added in neuronal differentiation medium at day 9 and were refreshed every four days until day 30 (Song et al., 2002).

[4] = test system: Aβ40 in human neuroblastoma cells; settings: cited from earlier work
[5] = test system: Aβ42 in human neuroblastoma cells; settings: cited from earlier work
[6] = target: gamma secretase; settings: read-out: IC50 γ-secretase; cited from earlier work
[7] = test system: Notch cleavage and Notch-mediated intracellular signaling; settings: cited from earlier work
[8] = test system: BACE1, BACE2, α-secretase, the proteasome or GSK3β; settings: cited from earlier work
[9] = test system: human cortical astrocytes (HA1800, ScienCell); type: cell-based; settings: VPA in reprogramming medium longer than 2 days
[10] = test system: Notch; settings: cited from earlier work
[11] = test system: mouse embryonic stem cells; settings: At 400 Nm; cited from earlier work
[12] = target: GSK-3β (Homo sapiens, UniProt P49841); settings: cited from earlier work
Chain of GSK-3β (P49841 whole entry, species assumed): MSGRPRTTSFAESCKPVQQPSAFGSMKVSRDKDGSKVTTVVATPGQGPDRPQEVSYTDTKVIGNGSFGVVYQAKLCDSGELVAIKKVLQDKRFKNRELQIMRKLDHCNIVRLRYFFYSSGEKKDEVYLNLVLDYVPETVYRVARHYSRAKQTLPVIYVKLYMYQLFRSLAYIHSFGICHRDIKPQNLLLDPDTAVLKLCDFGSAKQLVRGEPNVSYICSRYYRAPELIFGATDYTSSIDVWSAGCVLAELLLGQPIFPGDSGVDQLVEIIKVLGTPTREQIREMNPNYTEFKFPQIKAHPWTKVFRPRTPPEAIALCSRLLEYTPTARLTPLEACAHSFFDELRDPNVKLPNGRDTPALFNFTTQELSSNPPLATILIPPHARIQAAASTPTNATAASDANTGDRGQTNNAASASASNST

[13] = test system: human astrocyte-converted neurons; assay: Patch clamp whole-cell recordings of human astrocyte-converted neurons
[14] = target: TGFβR-I (Homo sapiens, UniProt P36897); settings: cited from earlier work
Chain of TGFβR-I (P36897 34-503): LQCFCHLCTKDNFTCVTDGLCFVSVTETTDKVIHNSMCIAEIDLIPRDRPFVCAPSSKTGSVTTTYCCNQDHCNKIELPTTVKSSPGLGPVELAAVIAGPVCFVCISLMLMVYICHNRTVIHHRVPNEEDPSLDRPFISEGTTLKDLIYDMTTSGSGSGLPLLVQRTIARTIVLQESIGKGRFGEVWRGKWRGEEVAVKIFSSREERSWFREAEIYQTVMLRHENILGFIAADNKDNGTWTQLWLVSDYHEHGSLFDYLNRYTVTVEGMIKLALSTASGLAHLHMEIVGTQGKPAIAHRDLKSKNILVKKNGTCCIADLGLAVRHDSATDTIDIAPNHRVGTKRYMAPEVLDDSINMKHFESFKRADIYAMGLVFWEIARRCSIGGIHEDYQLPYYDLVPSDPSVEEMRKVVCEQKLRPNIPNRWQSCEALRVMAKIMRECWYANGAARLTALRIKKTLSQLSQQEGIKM

O=S(=O)(NC1CCC(c2cc(F)ccc2F)(S(=O)(=O)c2ccc(Cl)cc2)CC1)C(F)(F)F (stereo not shown) [MRK 560]
IC50 [1]: 0.65 nM
oral bioavailability [2]: Orally bioavailable.

N#Cc1ccc2[nH]c(O)c(-c3ccc(CN4CCOCC4)cn3)c2c1 [AZD1080]
oral activity and brain permeability [2]: selective, orally active, brain permeable GSK3 inhibitor

NC(=O)c1ccc(-c2nc(-c3ccc4c(c3)OCO4)c(-c3ccccn3)[nH]2)cc1 [SB431542, -[4-(1,3-benzodioxol-5-yl)-5-(2-pyridinyl)-1H-imidazol-2-yl]benzamide]
effect of individual removal from the 9 small molecule pool on number of converted neurons / reprogramming efficiency [3]: significantly reduced

CC(C)C[C@H](NC(=O)[C@H](Cc1ccccc1)C[C@@H](O)[C@H](Cc1ccccc1)NC(=O)OC(C)(C)C)C(=O)N[C@@H](Cc1ccccc1)C(N)=O [L-685, 458]
IC50 [4]: 48 nM
IC50 [5]: 67 nM
IC50 [6]: 17 nM

COc1oc(=O)c2cc(N)ccc2c1Cl [LK 6]
effect on Notch cleavage and Notch-mediated intracellular signaling [7]: no effect
activity on BACE1, BACE2, α-secretase, the proteasome or GSK3β [8]: signaling. Displays no activity on BACE1, BACE2,

CNC1CCC(N(Cc2cccc(-c3ccncc3)c2)C(=O)c2sc3ccccc3c2Cl)CC1 (stereo not shown) [SAG]
effect of removal from the 9 small molecule pool on number of converted neurons / reprogramming efficiency [3]: slightly reduced

C/C(=C\c1ccc(C(=O)O)cc1)c1ccc2c(c1)C(C)(C)CCC2(C)C [TTNPB]
effect of individual removal from the 9 small molecule pool on number of converted neurons / reprogramming efficiency [3]: did not affect; also recorded: did not have a significant effect

CC(C)(C(=O)NCC(F)(F)C(F)(F)F)C(=O)N[C@@H]1C(=O)Nc2ccccc2-c2ccccc21 [RO4929097]
IC50 [6]: 4 nM

CCCC(CCC)C(=O)O [VPA, valproic acid]
effect of individual removal from the 9 small molecule pool on number of converted neurons / reprogramming efficiency [3]: slightly reduced
cell death [9]: increased cell death

c1ccc2c(Oc3nc(Nc4ccc(N5CCOCC5)cc4)c4ncn(C5CCCCC5)c4n3)cccc2c1 [Purmo, purmorphamine]
effect of removal from the 9 small molecule pool on number of converted neurons / reprogramming efficiency [3]: slightly reduced

C[C@H](NC(=O)Cc1cc(F)cc(F)c1)C(=O)N[C@H](C(=O)OC(C)(C)C)c1ccccc1 [DAPT]
effect of individual removal from the 9 small molecule pool on number of converted neurons / reprogramming efficiency [3]: significantly reduced; also recorded: most significant reduction

C[C@H](NC(=O)CCC(F)(F)F)C(=O)N[C@@H]1C(=O)N(CCO)c2ncccc2-c2ccccc21 [LY3039478]
IC50 [10]: 0.41 nM

O=C(NCc1ccccc1)c1csc(Nc2ccncn2)n1 [Tzv, thiazovivin]
effect of individual removal from the 9 small molecule pool on number of converted neurons / reprogramming efficiency [3]: did not affect; also recorded: did not have a significant effect

Nc1cccc(-c2cc3c(Oc4cccc(O)c4)ncnc3[nH]2)c1 [TWS119]
neurogenesis in mouse embryonic stem cells [11]: TWS119 induces neurogenesis in mouse embryonic
IC50 [12]: 30 nM

DNQX
effect on the majority of synaptic events at −70 mV [13]: blocked

LY364947
selectivity over TGFβR-II [14]: shows 7-fold selectivity over TGFβR-II.

Source: US11850273B2, “Chemical reprogramming of human glial cells into neurons for brain and spinal cord repair” (The Penn State Research Foundation, priority 2014, dated 2023)
